Experimental data taken from patent publication US4224448A, “2'-(5'-Nitrofuryl) substituted quinolines” (priority 1966, dated 1980).
≈ marks a conversion by molar mass, not a printed value. Like-named read-outs stand apart in the source and are kept apart here.

Legend:
Assay in all cases: Minimum inhibitory concentration, conventional tube dilution method
Assay type in all cases: cell-based
Staph. aureus = details: Staphylococcus aureus; gram-positive; tube dilution, 37 degrees, 24 hours; between 1 and 6 strains; mg/100 cc; decimal comma; read-out: Minimal Inhibitory Concentration, Staph. aureus
Description: (§1) The activity of some of the new nitrofuryl quinoline derivatives of the present invention is exemplified in Table 1 against a gram-positive (Staph. aureus), a gram-negative (Salmonella) bacterium and a fungus (Candida albicans). Table 1 indicates the minimum inhibitory concentration of the compound under reference in mg/100 cc required in order to inhibit the growth between 1 and 6 strains of each type. The measurements have been carried out by the conventional tube dilution method at 37 degrees after 24 hours.

Salmonella = details: read-out: Minimal Inhibitory Concentration, Salm.
Description: as §1

Candida albicans = details: fungus, tube dilution, 37 degrees, 24 hours, between 1 and 6 strains, mg/100 cc, decimal comma, read-out: Minimal Inhibitory Concentration, Cand. Alb.
Description: as §1

[1] = gram-negative, tube dilution, 37 degrees, 24 hours, between 1 and 6 strains, mg/100 cc, decimal comma

SMILES	MIC (Staph. aureus) [µg/mL]	MIC (Salmonella; [1]) [µg/mL]	MIC (Candida albicans) [µg/mL]	MIC (Salmonella; 24 h) [µg/mL]
CCc1cc(-c2ccc([N+](=O)[O-])o2)c2ccc(OC)cc2n1 [C2 H5 H 5NF H H OCH3 H]	0.01 to 0.5 (≈ 0.0335 to 1.68 µM)	25 (≈ 83.8 µM)	10 (≈ 33.5 µM)	–
CCc1cc(-c2ccc([N+](=O)[O-])o2)c2ccc(O)cc2n1 [C2 H5 H 5NF H H OH H]	0.1 to 0.5 (≈ 0.352 to 1.76 µM)	5 (≈ 17.6 µM)	50 (≈ 176 µM)	–
CCc1ccc2nc(CC)cc(-c3ccc([N+](=O)[O-])o3)c2c1 [C2 H5 H NF H C2 H5 H H, 2-ethyl-4-[2'-(5'-nitrofuryl)]-6-ethyl quinoline]	–	> 10	> 50	–
CCc1cc(-c2ccc([N+](=O)[O-])o2)c2cc(C)ccc2n1 [C2 H5 H NF H CH3 H H, 2-ethyl-4-[2'-(5'-nitrofuryl)]-6-methyl quinoline]	–	–	< 5	> 10
CCc1cc(-c2ccc([N+](=O)[O-])o2)c2ccc(C)cc2n1 [C2 H5 H NF H H CH3 H]	5 (≈ 17.7 µM)	> 50	> 50	–
CCc1cc(-c2ccc([N+](=O)[O-])o2)c2ccccc2n1 [C2 H5 H NF H H H H, 2-ethyl-4-[2'-(5'-nitrofuryl)]quinoline]	0.1 (≈ 0.373 µM)	> 50	5 (≈ 18.6 µM)	–
CCCc1cc(-c2ccc([N+](=O)[O-])o2)c2cc(C)ccc2n1 [C3 H7 H NF H CH3 H H]	1 (≈ 3.37 µM)	–	5 to 10 (≈ 16.9 to 33.7 µM)	> 50
CCCc1cc(-c2ccc([N+](=O)[O-])o2)c2ccc(C)cc2n1 [C3 H7 H NF H H CH 3 H]	5 (≈ 16.9 µM)	> 50	> 50	–
Cc1ccc2nc(C(Br)(Br)Br)cc(-c3ccc([N+](=O)[O-])o3)c2c1 [CBr3 H NF H CH3 H H, 2-tribromomethyl-4-[2'-(5'-nitrofuryl)]-6-methyl quinoline]	1 (≈ 1.98 µM)	> 25	> 50	–
O=[N+]([O-])c1ccc(-c2cc(C(Br)(Br)Br)nc3ccccc23)o1 [CBr3 H NF H H H H, 2-tribromomethyl-4-[2'-(5'-nitrofuryl)]quinoline]	0.5 (≈ 1.02 µM)	10 (≈ 20.4 µM)	30 to 50 (≈ 61.1 to 102 µM)	–
CC(=O)OCc1cc(-c2ccc([N+](=O)[O-])o2)c2ccccc2n1 [CH2 OCOCH3 H NF H H H H, 2-acetoxymethyl-4-[2'-(5'-nitrofuryl)]quinoline]	–	> 50	5 (≈ 16 µM)	–
CC(=O)OCc1cc(-c2ccc([N+](=O)[O-])o2)c2ccc(OC(C)=O)cc2n1 [CH2 OCOCH3 H NF H H OCOCH3 H, 2-acetoxymethyl-4-[2'-(5'-nitrofuryl)]-7-acetoxy quinoline]	–	10 to 25 (≈ 27 to 67.5 µM)	50 to 100 (≈ 135 to 270 µM)	–
O=[N+]([O-])c1ccc(-c2cc(CO)nc3ccccc23)o1 [CH2 OH H NF H H H H, 2-Hydroxymethyl-4-[2'-(5'-nitrofuryl)]quinoline]	0.1 (≈ 0.37 µM)	5 to 10 (≈ 18.5 to 37 µM)	5 (≈ 18.5 µM)	–
CCCCOc1ccc2c(-c3ccc([N+](=O)[O-])o3)cc(C)nc2c1 [CH3 H 5NF H H OC4 H9 H, 2-methyl-4-[2'-(5'-nitrofuryl)]-7-n-butoxy quinoline]	0.5 (≈ 1.53 µM)	–	> 50	–
CCc1cccc2c(-c3ccc([N+](=O)[O-])o3)cc(C)nc12 [CH3 H NF H H H C2 H5]	–	> 50	100 (≈ 354 µM)	–
Cc1cc(-c2ccc([N+](=O)[O-])o2)c2ccc(N)c(C)c2n1 [CH3 H NF H H NH2 CH3]	–	–	5 (≈ 17.6 µM)	1 to 5 (≈ 3.53 to 17.6 µM)
COc1ccc2c(-c3ccc([N+](=O)[O-])o3)cc(C)nc2c1 [CH3 H NF H H OCH3 H, 2-methyl-4-[2'-(5'-nitrofuryl)]-7-methoxy quinoline]	–	10 (≈ 35.2 µM)	5 (≈ 17.6 µM)	–
CC(=O)Oc1ccc2c(-c3ccc([N+](=O)[O-])o3)cc(C)nc2c1 [CH3 H NF H H OCOCH3 H]	–	2 (≈ 6.4 µM)	10 (≈ 32 µM)	–
COc1cc2nc(C)cc(-c3ccc([N+](=O)[O-])o3)c2cc1N [CH3 H NF H NH2 OCH3 H, 2-methyl-4-[2'-(5'-nitrofuryl)]-6-amino-7-methoxy-quinoline]	–	1 to 5 (≈ 3.34 to 16.7 µM)	5 (≈ 16.7 µM)	–
COc1cc2nc(C)cc(-c3ccc([N+](=O)[O-])o3)c2cc1NC(C)=O [CH3 H NF H NHCOCH3 OCH3 H, 2-methyl-4-[2'-(5'-nitrofuryl)]-6-acetylamino-7-methoxy-quinoline]	–	> 50	50 (≈ 146 µM)	–
CCc1ccc2nc(C(C)C)cc(-c3ccc([N+](=O)[O-])o3)c2c1 [CH(CH3)2 H 5NF H C2 H5 H H, 2-isopropyl-4-[2'-(5'-nitrofuryl)]-6-ethyl quinoline]	0.5 (≈ 1.61 µM)	–	50 (≈ 161 µM)	–

SMILES	MIC (Staph. aureus) [µg/mL]	MIC (Salmonella; [1]) [µg/mL]	MIC (Candida albicans) [µg/mL]	MIC (Salmonella; 24 h) [µg/mL]
O=[N+]([O-])c1ccc(-c2cc(C=NO)nc3ccccc23)o1 [CHNOH H NF H H H H, 4-[2'-(5'-nitrofuryl)]quinoline-2-carboxaldehyde oxime]	–	5 (≈ 17.7 µM)	10 (≈ 35.3 µM)	–
CCOc1ccc2c(-c3ccc([N+](=O)[O-])o3)cc(C=NO)nc2c1 [CHNOH H NF H H OC2 H5 H]	–	> 50	50 (≈ 153 µM)	–
CC(=O)c1cc(-c2ccc([N+](=O)[O-])o2)c2ccccc2n1 [COCH3 H NF H H H H, 4-[2'-(5'-nitrofuryl)]quinoline-2-methyl ketone]	–	> 50	> 50	–
CCOC(=O)c1cc(-c2ccc([N+](=O)[O-])o2)c2ccccc2n1 [COOC2 H5 H NF H H H H, 2-carbethoxy-4-[2'-(5'-nitrofuryl)]quinoline]	–	> 50	> 50	–
CCc1cc(-c2ccc([N+](=O)[O-])o2)c2cc(C)ccc2[n+]1[O-] [O C2 H5 H NF H CH3 H H]	0.1 (≈ 0.335 µM)	–	< 5	–
CCc1cc(-c2ccc([N+](=O)[O-])o2)c2ccc(OC)cc2[n+]1[O-] [O C2 H5 H NF H H OCH3 H]	0.01 to 0.5 (≈ 0.0318 to 1.59 µM)	–	> 50	–
CCc1cc(-c2ccc([N+](=O)[O-])o2)c2ccc(O)cc2[n+]1[O-] [O C2 H5 H NF H H OH H]	–	5 (≈ 16.7 µM)	25 (≈ 83.3 µM)	–
Cc1ccc2c(-c3ccc([N+](=O)[O-])o3)cc(C)[n+]([O-])c2c1 [O CH3 H NF H H CH3 H]	–	> 50	5 (≈ 17.6 µM)	–
CCCCOc1ccc2c(-c3ccc([N+](=O)[O-])o3)cc(C)[n+]([O-])c2c1 [O CH3 H NF H H OC4 H9 H]	0.5 to 1 (≈ 1.46 to 2.92 µM)	–	> 10	–
CC(=O)Oc1ccc2c(-c3ccc([N+](=O)[O-])o3)cc(C)[n+]([O-])c2c1 [O CH3 H NF H H OCOCH3 H]	–	5 (≈ 15.2 µM)	50 (≈ 152 µM)	–
Cc1cc(-c2ccc([N+](=O)[O-])o2)c2ccc(O)cc2[n+]1[O-] [O CH3 H NF H H OH H, 2-Methyl-4-[2'-(5'-nitrofuryl)]-7-hydroxy quinoline N-oxide]	–	5 to 10 (≈ 17.5 to 34.9 µM)	100 (≈ 349 µM)	–
COc1cc2c(cc1N)c(-c1ccc([N+](=O)[O-])o1)cc(C)[n+]2[O-] [O CH3 H NF H NH2 OCH3 H]	–	50 (≈ 159 µM)	> 50	–
COc1cc2c(cc1NC(C)=O)c(-c1ccc([N+](=O)[O-])o1)cc(C)[n+]2[O-] [O CH3 H NF H NHCOCH3 OCH3 H]	–	10 to 25 (≈ 28 to 70 µM)	50 (≈ 140 µM)	–
COc1cc2c(-c3ccc([N+](=O)[O-])o3)cc(C)[n+]([O-])c2cc1OC [O CH3 H NF H OCH3 OCH3 H]	–	> 50	> 50	–
O=[N+]([O-])c1ccc(-c2cc(C=NO)[n+]([O-])c3ccccc23)o1 [O CHNOH H NF H H H H]	–	1 to 5 (≈ 3.34 to 16.7 µM)	0.5 (≈ 1.67 µM)	–
Cc1ccc2c(-c3ccc([N+](=O)[O-])o3)cc(C(=O)O)[n+]([O-])c2c1 [O COOH H NF H H CH3 H, 2-carboxy-4-[2'-(5'-nitrofuryl)]-7-methyl quinoline N-oxide]	0.5 (≈ 1.59 µM)	–	50 (≈ 159 µM)	–
O=[N+]([O-])c1ccc(-c2ccc3ccccc3[n+]2[O-])o1 [O NF H H H H H H]	0.5 (≈ 1.95 µM)	–	< 5	–
CNN=Cc1cc(-c2ccc([N+](=O)[O-])o2)c2ccccc2n1 [drawing 7 H NF H H H H]	–	1 to 5 (≈ 3.38 to 16.9 µM)	10 to 25 (≈ 33.8 to 84.4 µM)	–
NC(=O)NN=Cc1cc(-c2ccc([N+](=O)[O-])o2)c2ccccc2n1 [drawing 8 H NF H H H H]	–	5 (≈ 15.4 µM)	25 to 50 (≈ 76.9 to 154 µM)	–
O=[N+]([O-])c1ccc(-c2cc(C=NNCCO)nc3ccccc23)o1 [drawing 9 H NF H H H H]	–	5 (≈ 15.3 µM)	25 (≈ 76.6 µM)	–
O=C1OCCN1N=Cc1cc(-c2ccc([N+](=O)[O-])o2)c2ccccc2n1 [drawing 10 H NF H H H H]	0.1 to 0.5 (≈ 0.284 to 1.42 µM)	–	5 (≈ 14.2 µM)	–
